# Key:
# Human plasma kallikrein = Human plasma kallikrein (Homo sapiens (Human), UniProt P03952); test: Kallikrein Assay; type: biochemical; conditions: purified Human plasma kallikrein 0.5 nM, Acetyl-K-P-R-AFC, pH 7.4; Ki from IC50 by Cheng Prusoff
# Outline: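 Purified human plasma kallikrein (0.5 nM final) with Acetyl-K-P-R-AFC substrate ([…]) in 50 mM HEPES pH 7.4, 150 mM NaCl, 5 mM CaCl2, 0.1% PEG 8000, after enzyme-inhibitor equilibration. Fluorescence (405 ex/510 em) under linear conditions; IC50 from four-parameter fit, converted to Ki by Cheng-Prusoff.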
# human Factor XIa = human Factor XIa (Homo sapiens (Human), UniProt P03951); test: Factor XIa Assay; type: biochemical; conditions: read-out: FXIa Ki
# Chain of human Factor XIa (P03951 388-625): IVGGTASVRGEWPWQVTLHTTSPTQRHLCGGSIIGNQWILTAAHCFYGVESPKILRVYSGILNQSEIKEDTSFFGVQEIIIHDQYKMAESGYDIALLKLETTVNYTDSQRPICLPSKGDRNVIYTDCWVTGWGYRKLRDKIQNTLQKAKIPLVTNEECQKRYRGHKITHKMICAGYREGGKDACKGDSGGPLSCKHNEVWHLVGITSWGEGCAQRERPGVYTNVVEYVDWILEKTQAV
# Chain of human Factor XIa (P03951 19-387 partner): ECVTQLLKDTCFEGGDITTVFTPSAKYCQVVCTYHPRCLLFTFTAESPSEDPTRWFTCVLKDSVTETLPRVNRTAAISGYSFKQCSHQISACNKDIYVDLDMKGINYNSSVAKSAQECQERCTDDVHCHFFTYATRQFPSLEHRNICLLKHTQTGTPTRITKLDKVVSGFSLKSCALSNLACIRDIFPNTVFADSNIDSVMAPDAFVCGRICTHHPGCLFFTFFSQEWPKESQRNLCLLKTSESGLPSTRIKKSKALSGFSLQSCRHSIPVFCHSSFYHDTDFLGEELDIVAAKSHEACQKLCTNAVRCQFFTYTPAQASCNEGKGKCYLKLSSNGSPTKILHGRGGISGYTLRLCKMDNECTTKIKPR
# Outline: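 Purified human FXIa (40 pM final) hydrolysing fluorogenic Z-Gly-Pro-Arg-AFC (100 μM) in 50 mM HEPES pH 7.4, 150 mM NaCl, 5 mM CaCl2, 0.1% PEG 8000, at room temperature or 37° C. Initial velocities measured after enzyme–inhibitor equilibration; Ki from Vo/Vi versus [I], assuming competitive inhibition.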
# Chain of Human plasma kallikrein (P03952 391-638): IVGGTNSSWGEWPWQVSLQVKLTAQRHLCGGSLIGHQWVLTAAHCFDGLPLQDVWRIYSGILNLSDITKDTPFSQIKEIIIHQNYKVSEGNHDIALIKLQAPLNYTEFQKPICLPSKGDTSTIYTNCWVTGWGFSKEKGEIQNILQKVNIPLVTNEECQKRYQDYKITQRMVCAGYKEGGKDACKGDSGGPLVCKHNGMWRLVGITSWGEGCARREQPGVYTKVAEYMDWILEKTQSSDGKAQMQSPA
# Chain of Human plasma kallikrein (P03952 20-390 partner): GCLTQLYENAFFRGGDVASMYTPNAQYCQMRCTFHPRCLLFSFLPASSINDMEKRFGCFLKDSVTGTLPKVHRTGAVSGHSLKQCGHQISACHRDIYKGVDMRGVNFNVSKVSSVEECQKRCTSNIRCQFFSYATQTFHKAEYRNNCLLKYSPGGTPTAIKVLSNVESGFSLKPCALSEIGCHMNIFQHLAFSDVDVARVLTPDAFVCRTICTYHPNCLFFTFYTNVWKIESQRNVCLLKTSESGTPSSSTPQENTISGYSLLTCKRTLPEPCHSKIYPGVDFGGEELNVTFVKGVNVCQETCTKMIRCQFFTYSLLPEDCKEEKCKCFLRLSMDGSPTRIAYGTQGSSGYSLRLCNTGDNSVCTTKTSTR
SMILES,Ki (Human plasma kallikrein),Ki (human Factor XIa)
Cc1[nH]c2ccc(C(=O)N[C@@H](Cc3ccccc3)C(=O)N3CCC[C@@]4(C3)OC(=O)Nc3ccc(Cl)cc34)cc2c1C(=O)O [Example 249],< 1.36 nM,2.02 nM
Cc1cc2cc(C(=O)N[C@@H](Cc3ccccc3)C(=O)N3CCC[C@@]4(C3)OC(=O)Nc3ccc(Cl)cc34)ccc2[nH]1 [Example 250],13.3 nM,41.9 nM
O=C1CCc2cc(C(=O)N[C@@H](CC3CC3)C(=O)N3CCC[C@@]4(C3)OC(=O)Nc3ccc(Cl)c(F)c34)ccc2N1 [Example 251],< 1.36 nM,5.72 nM
Nc1n[nH]c2cc(C(=O)N[C@@H](CC3CC3)C(=O)N3CCC[C@@]4(C3)OC(=O)Nc3ccc(Cl)c(F)c34)ccc12 [Example 254],0.83 nM,2.11 nM
O=C1Nc2ccc(Cl)c(F)c2[C@@]2(CCCN(C(=O)[C@H](CC3CC3)NC(=O)c3ccc4[nH]c(=O)ccc4c3)C2)O1 [Example 255],0.45 nM,4 nM
"O=C1Nc2ccc(Cl)c(F)c2[C@@]2(CCCN(C(=O)[C@H](Cc3ccccc3)NC(=O)c3ccc4[nH]nc(C(F)(F)F)c4c3)C2)O1 [Example 256, N—((S)-1-((R)-6-chloro-5-fluoro-2-oxo-1,2-dihydrospiro[benzo[d][1,3]oxazine-4,3′-piperidin]-1′-yl)-1-oxo-3-phenylpropan-2-yl)-3-(trifluoromethyl)-1H-indazole-5-carboxamide]",31 nM,> 875 nM
O=C1Nc2ccc(Cl)c(F)c2[C@@]2(CCCN(C(=O)[C@H](Cc3ccccc3)NC(=O)c3ccc4[nH]c(=O)ccc4c3)C2)O1 [Example 257],0.57 nM,0.78 nM
Nc1n[nH]c2cc(C(=O)N[C@@H](Cc3ccncc3)C(=O)N3CC[C@@]4(C3)OC(=O)Nc3ccc(Cl)cc34)ccc12 [Example 258],4.08 nM,1.73 nM
Nc1cc(C(=O)N[C@@H](Cc2ccccc2)C(=O)N2CCC3(C2)OC(=O)Nc2ccc(Cl)cc23)cc2[nH]cnc12 (stereo partly shown) [Example 260],130 nM,77.9 nM
Nc1n[nH]c2cc(C(=O)N[C@@H](CC(=O)N3CCC3)C(=O)N3CCC[C@@]4(C3)OC(=O)Nc3ccc(Cl)cc34)ccc12 [Example 266],1.22 nM,3.82 nM
"O=C1Nc2ccc(Cl)c(F)c2[C@@]2(CCCN(C(=O)[C@H](Cc3ccc(F)cc3)NC(=O)c3cc(F)c(C(=O)C(=O)O)s3)C2)O1 [Example 267, 2-(5-(((S)-1-((R)-6-chloro-5-fluoro-2-oxo-1,2-dihydrospiro[benzo[d][1,3]oxazine-4,3′-piperidin]-1′-yl)-3-(4-fluorophenyl)-1-oxopropan-2-yl)carbamoyl)-3-fluorothiophen-2-yl)-2-oxoacetic acid]",0.29 nM,0.7 nM
Nc1n[nH]c2cc(C(=O)N[C@@H](CC(=O)N3CCCC3)C(=O)N3CCC[C@@]4(C3)OC(=O)Nc3ccc(Cl)cc34)ccc12 [Example 268],0.9 nM,0.85 nM
CC(C)(O)C[C@H](NC(=O)c1ccc2c(N)n[nH]c2c1)C(=O)N1CCC[C@@]2(C1)OC(=O)Nc1ccc(Cl)cc12 [Example 269],3 nM,5 nM
"O=C(Nc1ccc(C(=O)N[C@@H](Cc2ccc(F)cc2)C(=O)N2CCC[C@@]3(C2)OC(=O)Nc2ccc(Cl)c(F)c23)cc1)OCCc1nnn[nH]1 [Example 274, 2-(1H-tetrazol-5-yl)ethyl (4-(((S)-1-((R)-6-chloro-5-fluoro-2-oxo-1,2-dihydrospiro[benzo[d][1,3]oxazine-4,3′-piperidin]-1′-yl)-3-(4-fluorophenyl)-1-oxopropan-2-yl)carbamoyl)phenyl)carbamate]",0.65 nM,3.22 nM
